Measured values taken from patent publication US20120040976A1, “SMALL MOLECULE IMMUNOMODULATORS FOR ALZHEIMER'S DISEASE” (HUMAN BIOMOLECULAR RESEARCH INSTITUTE, priority 2008, published 2012).
pIC50: −log10 of the molar value.

What was measured:
MGAT3 [1] = assay: MGAT3 transcription ratio, AD patient / control PBMCs (qPCR); assay type: cell-based, human; details: Aβ stimulation
Procedure, shortened: (§1)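 Via qPCR on cultured human monocyte cDNA, curcuminoid-treated versus vehicle, with Aβ stimulation, in AD patient and control cells. SYBR-Green triplicate reactions; Ct averaged, normalised to control genes, fold change by 2^−ΔΔCt. EC50 taken from curcumin concentration-response data.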

TLR 4 = TLR 4 transcription ratio, AD patient / control PBMCs (qPCR); assay type: cell-based, human; details: Aβ stimulation
Procedure, shortened: as §1

TLR 5 = TLR 5 transcription ratio, AD patient / control PBMCs (qPCR); assay type: cell-based, human; details: Aβ stimulation
Procedure: (§2) qPCR reactions of cultured monocyte cDNAs. One μL total cellular cDNA per reaction is used in triplicate reactions for each test gene, and for each culture treatment. SYBR-Green reactions were run on a Continuous Fluorescence real-time thermocycler and analyzed. Cycle threshold (Ct) values are recorded for each replicate reaction, and are then averaged and normalized against mean Ct values from one or more control genes. Fold-expression differences relative to untreated cells are determined using the 2^−ΔΔCt method as previously described. Data from the curcumin concentration range are plotted in order to determine EC50 values (concentrations producing one-half maximal stimulant activity), which are used for comparisons of potency between different compounds. Data are also evaluated for each gene with regard to sensitivity, maximally effective concentration of curcuminoid, response to Aβ, and overall magnitude of fold-expression changes.
(§3) MGAT3 and/or TLR transcription were tested by qPCR in human monocyte cells treated with curcuminoids and compared the results to those treated with vehicle (Table 7). As discussed above, activation or up-regulation of macrophage MGAT3 or TLR's results in many functional outcomes, including the enhancement of […] and removal of Aβ, increased apoptosis, secretion of inflammatory cytokines, and other anti-AD antimicrobial activities. […]

TLR 3 = TLR 3 transcription ratio, AD patient / control PBMCs (qPCR); assay type: cell-based, human; details: Aβ stimulation
Procedure, shortened: as §1

TLR 10 = TLR 10 transcription ratio, AD patient / control PBMCs (qPCR); assay type: cell-based, human; details: Aβ stimulation
Procedure: as §2, §3

[2] = Chemical stability (H2O, pH 7.4); assay type: physicochemical
MGAT3 [3] = assay: MGAT3 expression in response to oxidative stress (H2O2) in neuroblastoma cells; assay type: cell-based, human; details: H2O2, data not shown
Procedure: Gene expression in response to oxidative stress. […] The neuroblastoma SHSY5Y and wtSOD^+ overexpressing cells were subjected to varying concentrations of hydrogen peroxide (H2O2; 0.5-5 mM) for varying times. After 1, 2, and 3 hours of incubation, cells were harvested, total RNAs were isolated, and prepared cDNAs were used in qPCR experiments to quantify normalized mRNA levels. MGAT3 expression in untransfected cells increased in relation to oxidative stress conditions, with peak expression (>200-fold increased) at 2-3 hours in the presence of 2.5 mM H2O2. Again, increased SOD1 expression appeared to potentiate MGAT3 expression, with higher maximal MGAT3 expression (>300-fold increased) observed in the wtSOD^+ line, and at lower H2O2 concentrations (e.g. 0.5 mM). […] Further, curcumins may potentiate the cellular response to oxidative stress and may therefore have a protective effect.

[4] = Metabolic stability in human S9 fraction; assay type: in vitro ADME; details: read-out: Half life, t1/2 S9
TLR 1 = TLR 1 transcription ratio, AD patient / control PBMCs (qPCR); assay type: cell-based, human; details: Aβ stimulation
Procedure: as §2, §3

MGAT3 [5] = assay: MGAT3 gene expression by qPCR in U-937 human monocytic cells treated with curcumins plus Aβ; assay type: cell-based; details: human monocytic cells (U-937), curcumin plus Aβ
Procedure: (§4) Cell culture conditions for monocytic cell lines. Human and mouse monocyte cell lines are grown in RPMI-1640 medium with 10% fetal bovine serum (FBS), plus glutamine and pen/strep. For treatment with compounds (curcuminoids+/−Aβ), replicate sets of 0.5-1.0 mL cultures containing 1-2×10^6 cells are set up in the wells of 48-well tissue culture plates. Both replicate sets have at least one control well receiving no added curcuminoid to provide baseline expression controls for untreated, and Aβ-only treated cells. Remaining wells receive curcuminoid in a range of 10-fold serial dilutions in DMSO, typically from […] Cultures are incubated for 20-24 hours (“overnight”) at 37° C. in atmosphere with 5% CO2. After one overnight, to one of replicate sets of cultures is added Aβ (1-42) peptide to a final concentration of 5 μg/mL.
(§5) RNA isolation and cDNA synthesis. After the first overnight incubation in the presence of curcuminoid, cells from one replicate set of wells are collected by centifugation. RNAs are extracted from pelleted cells using miniprep column kits following manufacturer's protocol for animal cells. […] of total cellular RNA from each well is quantitated using a Nanodrop spectrophotometer, and first-strand total cDNA is prepared from 0.3-1.0 μg RNA by random-hexamer priming. Following the second 20 hr. incubation in the presence of Aβ, RNA extractions and cDNA synthesis are similarly performed.
Assay development. Gene-specific mRNA levels are determined using a real-time thermocycler, and by normalizing to expression of one or more control genes. Assays for quantifying mRNA levels are based on gene sequences reported in NCBI Genbank. PCR oligonucleotide primers are selected spanning introns to minimize the opportunity for amplication from any contaminating genomic DNA in the RNA preps. Oligonucleotides are typically tested and used at a concentration of 200 nM in qPCR reactions containing SYBR dye. Control reactions include template from cDNA synthesis reactions either + or − reverse transcriptase (RT), as well as no-template controls (ntc). […] Melt curves based on incremental 0.5° C. increases are determined for new assays to test for uniformity of amplified products. […]
qPCR reactions of cultured monocyte cDNAs. […] SYBR-Green reactions were run on a Continuous Fluorescence real-time thermocycler and analyzed. Cycle threshold (Ct) values are recorded for each replicate reaction, and are then averaged and normalized against mean Ct values from one or more control genes. Fold-expression differences relative to untreated cells are determined using the 2^−ΔΔCt method as previously described. […] Data are also evaluated for each gene with regard to sensitivity, maximally effective concentration of curcuminoid, response to Aβ, and overall magnitude of fold-expression changes. […]

TLR4 = TLR4 gene expression by qPCR in U-937 human monocytic cells treated with curcumins plus Aβ; assay type: cell-based; details: human monocytic cells (U-937), curcumin plus Aβ
Procedure: as §4, §5
(§6) Assay development. Gene-specific mRNA levels are determined using a real-time thermocycler, and by normalizing to expression of one or more control genes. Assays for quantifying mRNA levels are based on gene sequences reported in NCBI Genbank. PCR oligonucleotide primers are selected spanning introns to minimize the opportunity for amplication from any contaminating genomic DNA in the RNA preps. Oligonucleotides are typically tested and used at a concentration of 200 nM in qPCR reactions containing SYBR dye. Control reactions include template from cDNA synthesis reactions either + or − reverse transcriptase (RT), as well as no-template controls (ntc). All reactions are performed in triplicate. Reactions are typically run with 40 cycles of 95° C. (10 sec) and 58° C. (30 sec). Melt curves based on incremental 0.5° C. increases are determined for new assays to test for uniformity of amplified products. Reaction conditions are modified as needed depending on initial test results. ‘Working’ assays are selected based on clear RNA-dependent amplification and absence of product in ‘ntc’ reactions. The following assay primers are used: […]
qPCR reactions of cultured monocyte cDNAs. One μL total cellular cDNA per reaction is used in triplicate reactions for each test gene, and for each culture treatment. SYBR-Green reactions were run on a Continuous Fluorescence real-time thermocycler and analyzed. Cycle threshold (Ct) values are recorded for each replicate reaction, and are then averaged and normalized against mean Ct values from one or more control genes. Fold-expression differences relative to untreated cells are determined using the 2^−ΔΔCt method as previously described. […] Data are also evaluated for each gene with regard to sensitivity, maximally effective concentration of curcuminoid, response to Aβ, and overall magnitude of fold-expression changes. […]

TLR 8 = TLR 8 transcription ratio, AD patient / control PBMCs (qPCR); assay type: cell-based, human; details: Aβ stimulation
Procedure: as §2, §3

TLR3 = TLR3 gene expression by qPCR in U-937 human monocytic cells treated with curcumins plus Aβ; assay type: cell-based
Procedure: as §4, §5, §6, §2
Data showing in vitro up-regulation of genes associated with Aβ phagocytosis in response to curcumins. Natural curcumins and synthetic analogs were tested in U-937 human monocyte cells in vitro for their ability to modulate expression of the genes MGAT3 and TLRs −2, −3, and −4. […]

## O=C(/C=C(O)/C=C/c1ccc(O)cc1)/C=C/c1ccc(O)cc1 [Compound 1, 5-Hydroxy-1,7-bis-(4-hydroxy-phenyl)-hepta-1,4,6-trien-3-one, reference compound]
MGAT3 [1]
  Relative ratio of MGAT3 transcription in AD patient / control PBMC's: ++ ((++) indicates a ratio of 1.5-2.0)
TLR 4
  Relative ratio of TLR 4 transcription in AD patient / control PBMC's: TLR 4 +++ ((+++ to ++++) indicates a ratio of 2.0 and above)
TLR 5
  Relative ratio of TLR 5 transcription in AD patient / control PBMC's: TLR 5 +++ ((+++ to ++++) indicates a ratio of 2.0 and above)
TLR 3
  Relative ratio of TLR 3 transcription in AD patient / control PBMC's: TLR 3 ++ ((++) indicates a ratio of 1.5-2.0)
TLR 10
  Relative ratio of TLR 10 transcription in AD patient / control PBMC's: TLR 10 ++ ((++) indicates a ratio of 1.5-2.0)
[2]; water (aqueous solution), pH 7.4, read-out: Chemical stability t1/2 pH 7.4 (converted)
  half-life: 14 min
[2]; water, H2O, read-out: Chemical stability t1/2 H2O (converted)
  half-life: 60 min
Anti-oxidant activity
  pIC50: < 3.60
MGAT3 [3]
  Effect on MGAT3 expression in response to oxidative stress: enhance MGAT3 expression
[4]
  half-life: 4 min
TLR 1
  Relative ratio of TLR 1 transcription in AD patient / control PBMC's: TLR 1 ++ ((++) indicates a ratio of 1.5-2.0)
MGAT3 [5]
  Relative gene expression MGAT3, increased expression relative to control cells: + ((+) <20-fold)
TLR4
  Relative gene expression TLR4, increased expression relative to control cells: + ((+) <20-fold)
TLR 8
  Relative ratio of TLR 8 transcription in AD patient / control PBMC's: TLR 8 + ((+) indicates a ratio of 1.0-1.5)
TLR3; U-937, plus Aβ (FIG. 3)
  TLR3 expression response (in words): limited response
TLR3; human monocytic cells (U-937), curcumin plus Aβ
  Relative gene expression TLR3, increased expression relative to control cells: + ((+) <20-fold)
